In ChEMBL document CHEMBL3045223, “Synthesis, nematicidal and antimicrobial properties of Bis-[4-methoxy-3-[3-(4-fluorophenyl)-6-(4-methylphenyl)-2(aryl)-tetrahydro-2H-pyrazolo[3,4-d]thiazol-5-yl]phenyl]methanes” (2009):
In brackets after ≈: the same amount, converted by molar mass. Activity calls are given as the source filed them. The rule behind the calls is not given here.

Key:
Format in all cases: functional
[1] = test system: Staphylococcus aureus; assay: Antibacterial activity against Staphylococcus aureus MTCC 96 assessed as inhibition zones at 300 ug/disc at 37 degC for 24 hr; settings: MTCC 96, 24 h, read-out: IZ
[2] = test system: Bacillus subtilis; assay: Antibacterial activity against Bacillus subtilis MTCC 441 assessed as inhibition zones at 300 ug/disk at 37 degC for 24 hr; settings: MTCC 441, 24 h, read-out: IZ
[3] = test system: Candida albicans; assay: Antifungal activity against Candida albicans ATCC 10231 assessed as growth inhibition at 300 ug/disk at 37 degC for 48 hr; settings: for zone of inhibition at 300 µg/disc: ATCC 10231, 48 h, read-out: IZ
[4] = test system: Aspergillus fumigatus; assay: Antifungal activity against Aspergillus fumigatus HIC 6094 assessed as growth inhibition at 37 degC for 48 hr
[5] = test system: Klebsiella aerogenes; assay: Antibacterial activity against Enterobacter aerogenes MTCC 39 assessed as inhibition zones at 300 ug/disk at 37 degC for 24 hr; settings: MTCC 39, 24 h, read-out: IZ
[6] = test system: Trichophyton mentagrophytes; assay: Antifungal activity against Trichophyton mentagrophytes IFO 40996 assessed as growth inhibition at 37 degC for 48 hr
[7] = test system: Ditylenchus myceliophagus; assay: Nematicidal activity against Ditylenchus myceliophagus assessed as immobility; settings: read-out: LD50 (the source's name)
[8] = test system: Pseudomonas aeruginosa; assay: Antibacterial activity against Pseudomonas aeruginosa MTCC 741 assessed as growth arrest at 37 degC for 24 hr; settings: MTCC 741, 24 h
[9] = test system: Bacillus subtilis; assay: Antibacterial activity against Bacillus subtilis MTCC 441 assessed as growth arrest at 37 degC for 24 hr; settings: MTCC 441, 24 h
[10] = test system: Chromobacterium violaceum; assay: Antibacterial activity against Chromobacterium violaceum MTCC 2656 assessed as inhibition zones at 300 ug/disk at 37 degC for 24 hr; settings: MTCC 2656, 24 h, read-out: IZ
[11] = test system: Lysinibacillus sphaericus; assay: Antibacterial activity against Lysinibacillus sphaericus MTCC 11 assessed as growth arrest at 37 degC for 24 hr; settings: MTCC 11, 24 h
[12] = test system: Pseudomonas aeruginosa; assay: Antibacterial activity against Pseudomonas aeruginosa MTCC 741 assessed as inhibition zones at 300 ug/disk at 37 degC for 24 hr; settings: MTCC 741, 24 h, read-out: IZ
[13] = test system: Aspergillus fumigatus; assay: Antifungal activity against Aspergillus fumigatus HIC 6094 assessed as growth inhibition at 300 ug/disc at 37 degC for 48 hr; settings: for zone of inhibition at 300 µg/disc: HIC 6094, 48 h, read-out: IZ
[14] = test system: Trichophyton mentagrophytes; assay: Antifungal activity against Trichophyton mentagrophytes IFO 40996 assessed as growth inhibition at 300 ug/disc at 37 degC for 48 hr; settings: for zone of inhibition at 300 µg/disc: IFO 40996, 48 h, read-out: IZ
[15] = test system: Klebsiella aerogenes; assay: Antibacterial activity against Enterobacter aerogenes MTCC 39 assessed as growth arrest at 37 degC for 24 hr; settings: MTCC 39, 24 h
[16] = test system: Trichophyton rubrum; assay: Antifungal activity against Trichophyton rubrum IFO 9185 assessed as growth inhibition at 300 ug/disk at 37 degC for 48 hr; settings: for zone of inhibition at 300 µg/disc: IFO 9185, 48 h, read-out: IZ
[17] = test system: Lysinibacillus sphaericus; assay: Antibacterial activity against Lysinibacillus sphaericus MTCC 11 assessed as inhibition zones at 300 ug/disk at 37 degC for 24 hr; settings: MTCC 11, 24 h, read-out: IZ
[18] = test system: Staphylococcus aureus; assay: Antibacterial activity against Staphylococcus aureus MTCC 96 assessed as growth arrest at 37 degC for 24 hr; settings: MTCC 96, 24 h
[19] = test system: Candida albicans; assay: Antifungal activity against Candida albicans ATCC 10231 assessed as growth inhibition at 37 degC for 48 hr; settings: ATCC 10231, 48 h
[20] = test system: Caenorhabditis elegans; assay: Nematicidal activity against Caenorhabditis elegans assessed as immobility; settings: read-out: LD50 (the source's name)
[21] = test system: Trichophyton rubrum; assay: Antifungal activity against Trichophyton rubrum IFO 9185 assessed as growth inhibition at 37 degC for 48 hr
[22] = test system: Chromobacterium violaceum; assay: Antibacterial activity against Chromobacterium violaceum MTCC 2656 assessed as growth arrest at 37 degC for 24 hr; settings: MTCC 2656, 24 h

SMILES | zone of inhibition at 300 µg/disc [1] [mm] | zone of inhibition at 300 µg/disc [2] [mm] | zone of inhibition at 300 µg/disc [5] [mm] | LC50 [7] [µg/mL] | MBC [8] [µg/mL] | MIC [8] [µg/mL] | MBC [9] [µg/mL] | MIC [9] [µg/mL] | zone of inhibition at 300 µg/disc [10] [mm] | MBC [11] [µg/mL] | MIC [11] [µg/mL] | zone of inhibition at 300 µg/disc [12] [mm] | MBC [15] [µg/mL] | MIC [15] [µg/mL] | zone of inhibition at 300 µg/disc [17] [mm] | MBC [18] [µg/mL] | MIC [18] [µg/mL] | MBC [19] [µg/mL] | MIC [19] [µg/mL] | LC50 [20] [µg/mL] | further results
COc1ccc(Cc2ccc(OC)c(C3SC4C(=NN(Cc5ccccc5)C4c4ccc(F)cc4)N3c3ccc(C)cc3)c2)cc1C1SC2C(=NN(Cc3ccccc3)C2c2ccc(F)cc2)N1c1ccc(C)cc1 (stereo not given) | 24 | 20 | 22 | 190 (≈ 184 µM) | 25 (≈ 24.2 µM) | 12.5 (≈ 12.1 µM) | 12.5 (≈ 12.1 µM) | 6.25 (≈ 6.06 µM) | 17 | 12.5 (≈ 12.1 µM) | 6.25 (≈ 6.06 µM) | 14 | 50 (≈ 48.5 µM) | 12.5 (≈ 12.1 µM) | 14 | 6.25 (≈ 6.06 µM) | 6.25 (≈ 6.06 µM) | 6.25 (≈ 6.06 µM) | 3.12 (≈ 3.03 µM) | 210 (≈ 204 µM) | zone of inhibition at 300 µg/disc [3]: 22 mm; MBC ([4]; HIC 6094, 48 h): 25 µg/mL (≈ 24.2 µM); MIC ([4]; HIC 6094, 48 h): 25 µg/mL (≈ 24.2 µM); MBC ([6]; IFO 40996, 48 h): 25 µg/mL (≈ 24.2 µM); MIC ([6]; IFO 40996, 48 h): 25 µg/mL (≈ 24.2 µM); zone of inhibition at 300 µg/disc [13]: 16 mm; zone of inhibition at 300 µg/disc [14]: 16 mm; zone of inhibition at 300 µg/disc [16]: 15 mm; MBC ([21]; IFO 9185, 48 h): 25 µg/mL (≈ 24.2 µM); MIC ([21]; IFO 9185, 48 h): 12.5 µg/mL (≈ 12.1 µM); MBC [22]: 12.5 µg/mL (≈ 12.1 µM); MIC [22]: 12.5 µg/mL (≈ 12.1 µM)
COc1ccc(Cc2ccc(OC)c(C3SC4C(=NN(Cc5ccccc5)C4c4ccc(F)cc4)N3c3ccc(Cl)cc3)c2)cc1C1SC2C(=NN(Cc3ccccc3)C2c2ccc(F)cc2)N1c1ccc(Cl)cc1 (stereo not given) | 30 | 23 | 23 | 180 (≈ 168 µM) | 50 (≈ 46.6 µM) | 12.5 (≈ 11.7 µM) | 12.5 (≈ 11.7 µM) | 6.25 (≈ 5.83 µM) | 18 | 50 (≈ 46.6 µM) | 6.25 (≈ 5.83 µM) | 18 | 12.5 (≈ 11.7 µM) | 6.25 (≈ 5.83 µM) | 23 | 25 (≈ 23.3 µM) | 6.25 (≈ 5.83 µM) | 6.25 (≈ 5.83 µM) | 3.12 (≈ 2.91 µM) | 200 (≈ 187 µM) | zone of inhibition at 300 µg/disc [3]: 21 mm; MBC ([4]; HIC 6094, 48 h): 12.5 µg/mL (≈ 11.7 µM); MIC ([4]; HIC 6094, 48 h): 6.25 µg/mL (≈ 5.83 µM); MBC ([6]; IFO 40996, 48 h): 25 µg/mL (≈ 23.3 µM); MIC ([6]; IFO 40996, 48 h): 12.5 µg/mL (≈ 11.7 µM); zone of inhibition at 300 µg/disc [13]: 17 mm; zone of inhibition at 300 µg/disc [14]: 16 mm; zone of inhibition at 300 µg/disc [16]: 14 mm; MBC ([21]; IFO 9185, 48 h): 12.5 µg/mL (≈ 11.7 µM); MIC ([21]; IFO 9185, 48 h): 6.25 µg/mL (≈ 5.83 µM); MBC [22]: 6.25 µg/mL (≈ 5.83 µM); MIC [22]: 6.25 µg/mL (≈ 5.83 µM)
COc1ccc(Cc2ccc(OC)c(C3SC4C(=NN(C(C)C)C4c4ccc(F)cc4)N3c3ccc(C)cc3)c2)cc1C1SC2C(=NN(C(C)C)C2c2ccc(F)cc2)N1c1ccc(C)cc1 (stereo not given) | 23 | 13 | 19 | 550 (≈ 588 µM) | 12.5 (≈ 13.4 µM) | 6.25 (≈ 6.68 µM) | 50 (≈ 53.5 µM) | 25 (≈ 26.7 µM) | 16 | 50 (≈ 53.5 µM) | 50 (≈ 53.5 µM) | 23 | 12.5 (≈ 13.4 µM) | 12.5 (≈ 13.4 µM) | 13 | 50 (≈ 53.5 µM) | 25 (≈ 26.7 µM) | 25 (≈ 26.7 µM) | 12.5 (≈ 13.4 µM) | 600 (≈ 642 µM) | inhibition zone (IZ) [3]: inactive; MBC [4]: inactive; MIC [4]: inactive; MBC [6]: inactive; MIC [6]: inactive; zone of inhibition at 300 µg/disc [13]: 13 mm; inhibition zone (IZ) [14]: inactive; inhibition zone (IZ) [16]: inactive; MBC [21]: inactive; MIC [21]: inactive; MBC [22]: 25 µg/mL (≈ 26.7 µM); MIC [22]: 25 µg/mL (≈ 26.7 µM)
COc1ccc(N2N=C3C(SC(c4cc(Cc5ccc(OC)c(C6SC7C(=NN(c8ccc(OC)cc8)C7c7ccc(F)cc7)N6c6ccc(Cl)cc6)c5)ccc4OC)N3c3ccc(Cl)cc3)C2c2ccc(F)cc2)cc1 (stereo not given) | 28 | 17 | 21 | 900 (≈ 815 µM) | 50 (≈ 45.3 µM) | 12.5 (≈ 11.3 µM) | 12.5 (≈ 11.3 µM) | 12.5 (≈ 11.3 µM) | 23 | 50 (≈ 45.3 µM) | 12.5 (≈ 11.3 µM) | 20 | 25 (≈ 22.6 µM) | 12.5 (≈ 11.3 µM) | 16 | 25 (≈ 22.6 µM) | 12.5 (≈ 11.3 µM) | 50 (≈ 45.3 µM) | 25 (≈ 22.6 µM) | 820 (≈ 743 µM) | zone of inhibition at 300 µg/disc [3]: 14 mm; MBC [4]: inactive; MIC [4]: inactive; MBC ([6]; IFO 40996, 48 h): 50 µg/mL (≈ 45.3 µM); MIC ([6]; IFO 40996, 48 h): 25 µg/mL (≈ 22.6 µM); inhibition zone (IZ) [13]: inactive; inhibition zone (IZ) [14]: inactive; inhibition zone (IZ) [16]: inactive; MBC ([21]; IFO 9185, 48 h): 50 µg/mL (≈ 45.3 µM); MIC ([21]; IFO 9185, 48 h): 25 µg/mL (≈ 22.6 µM); MBC [22]: 50 µg/mL (≈ 45.3 µM); MIC [22]: 6.25 µg/mL (≈ 5.66 µM)
COc1ccc(Cc2ccc(OC)c(C3SC4C(=NN(C(C)C)C4c4ccc(F)cc4)N3c3ccc(Cl)cc3)c2)cc1C1SC2C(=NN(C(C)C)C2c2ccc(F)cc2)N1c1ccc(Cl)cc1 (stereo not given) | 13 | 12 | 20 | 520 (≈ 533 µM) | 25 (≈ 25.6 µM) | 25 (≈ 25.6 µM) | 25 (≈ 25.6 µM) | 12.5 (≈ 12.8 µM) | 16 | 50 (≈ 51.2 µM) | 25 (≈ 25.6 µM) | 13 | 50 (≈ 51.2 µM) | 25 (≈ 25.6 µM) | 11 | 25 (≈ 25.6 µM) | 12.5 (≈ 12.8 µM) | 25 (≈ 25.6 µM) | 12.5 (≈ 12.8 µM) | 670 (≈ 686 µM) | zone of inhibition at 300 µg/disc [3]: 10 mm; MBC ([4]; HIC 6094, 48 h): 25 µg/mL (≈ 25.6 µM); MIC ([4]; HIC 6094, 48 h): 25 µg/mL (≈ 25.6 µM); MBC ([6]; IFO 40996, 48 h): 50 µg/mL (≈ 51.2 µM); MIC ([6]; IFO 40996, 48 h): 25 µg/mL (≈ 25.6 µM); inhibition zone (IZ) [13]: inactive; zone of inhibition at 300 µg/disc [14]: 12 mm; zone of inhibition at 300 µg/disc [16]: 11 mm; MBC [21]: inactive; MIC [21]: inactive; MBC [22]: 25 µg/mL (≈ 25.6 µM); MIC [22]: 12.5 µg/mL (≈ 12.8 µM)
